Experimental data taken from patent US20230086702A1, “SUBSTITUTED 2-AMINO-PYRAZOLYL-[1,2,4]TRIAZOLO[1,5A]PYRIDINE DERIVATIVES AND USE THEREOF” (The Johns Hopkins University, priority 2019, published 2023).

Tests used:
DLK = biological target: T1, DLK (Homo sapiens, UniProt Q12852); assay: DLK biochemical assay (TR-FRET, MKK7 phosphorylation)
T1 construct: 10 nM DLK, catalytic domain, Carna Biosiences; purchased Carna Biosciences ('Carna Biosiences' [sic])
T1 sequence (Q12852 125-366 limits assumed): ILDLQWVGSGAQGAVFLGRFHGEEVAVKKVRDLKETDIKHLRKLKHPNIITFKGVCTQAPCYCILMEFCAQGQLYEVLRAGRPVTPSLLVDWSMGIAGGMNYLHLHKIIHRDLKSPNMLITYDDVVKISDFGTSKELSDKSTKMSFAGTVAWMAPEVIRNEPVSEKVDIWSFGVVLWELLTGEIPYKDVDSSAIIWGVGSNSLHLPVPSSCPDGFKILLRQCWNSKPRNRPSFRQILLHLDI
In short: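 TR-FRET read-out (665/Eu ratio) of MKK7 T275/S277 phosphorylation, with inhibition lowering the signal. Final conditions: 10 nM DLK catalytic domain, 15 nM MKK7, 60 μM ATP, 90 min at RT. Detection incubation 16 h at 37° C in 1536-well or 4° C in 384-well format.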

LZK = biological target: T2, LZK (Homo sapiens, UniProt O43283); assay: LZK biochemical assay (TR-FRET, MKK7 phosphorylation)
T2 construct: 10 nM LZK, catalytic domain, Carna Biosiences in assay buffer; purchased Carna Biosciences ('Carna Biosiences' [sic])
T2 sequence (O43283 168-409 limits assumed): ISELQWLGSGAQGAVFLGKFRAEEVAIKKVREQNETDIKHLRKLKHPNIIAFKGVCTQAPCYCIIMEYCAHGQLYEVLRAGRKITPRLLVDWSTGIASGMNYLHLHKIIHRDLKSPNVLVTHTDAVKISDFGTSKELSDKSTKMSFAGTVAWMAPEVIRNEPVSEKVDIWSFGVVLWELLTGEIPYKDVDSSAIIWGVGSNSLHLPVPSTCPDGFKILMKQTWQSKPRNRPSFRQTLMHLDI
In short: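 Read-out is HTRF: Eu-labelled anti-phospho-MKK7 (T275/S277) and XL665 anti-His, incubated 16 h at 32 °C, with a drop in signal marking inhibition. Reaction beforehand: 10 nM LZK kinase domain, 15 nM His-MKK7, 15 µM ATP (final) for 90 min at room temperature, pH 7.5.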

| SMILES | IC50 (DLK) [nM] | IC50 (LZK) [nM] |
| --- | --- | --- |
| Nc1nc2cc(-c3cnn(C(c4ccc(C(F)(F)F)nc4)C4CCOCC4)c3)cc(-c3ccc(=O)n(C(F)F)c3)n2n1 (single isomer, unassigned) [II-184, 5-[2-Amino-7-(1-{tetrahydro-2H-pyran-4-yl[6-(trifluoromethyl)pyridin-3-yl]methyl}-1H-pyrazol-4-yl)[1,2,4]triazolo[1,5-a]pyridin-5-yl]-1-(difluoromethyl)pyridin-2(1H)-one] | 1.2 | 2.4 |
| Nc1nc2cc(-c3cnn(C(c4ccc(C(F)(F)F)nc4)C4CCOCC4)c3)cc(-c3ccc(=O)n(CC(F)F)c3)n2n1 (single isomer, unassigned) [II-186, 5-[2-Amino-7-(1-{tetrahydro-2H-pyran-4-yl[6-(trifluoromethyl)pyridin-3-yl]methyl}-1H-pyrazol-4-yl)[1,2,4]triazolo[1,5-a]pyridin-5-yl]-1-(2,2-difluoroethyl)pyridin-2(1H)-one] | 4.1 | 4.5 |
| Nc1nc2cc(-c3cnn(C(c4ccc(C(F)(F)F)nc4)C4CCOCC4)c3)cc(-c3ccc(=O)n(CC(F)F)c3)n2n1 (single isomer, unassigned) [II-187, 5-[2-Amino-7-(1-{tetrahydro-2H-pyran-4-yl[6-(trifluoromethyl)pyridin-3-yl]methyl}-1H-pyrazol-4-yl)[1,2,4]triazolo[1,5-a]pyridin-5-yl]-1-(2,2-difluoroethyl)pyridin-2(1H)-one] | 0.2 | 0.5 |
| CCC(c1ccc(C(F)(F)F)nc1)n1cc(-c2cc(-c3ccc(=O)n(CC(F)(F)F)c3)n3nc(N)nc3c2)cn1 (single isomer, unassigned) [II-189, 5-[2-Amino-7-(1-{1-[6-(trifluoromethyl)pyridin-3-yl]propyl}-1H-pyrazol-4-yl)[1,2,4]triazolo[1,5-a]pyridin-5-yl]-1-(2,2,2-trifluoroethyl)pyridin-2(1H)-one] | 15 | 32 |
| Nc1nc2cc(-c3cnn(C(c4ccc(C(F)(F)F)nc4)C4CCOCC4)c3)cc(-c3ccc(=O)n(CC(F)(F)F)c3)n2n1 (single isomer, unassigned) [II-192, 5-[2-Amino-7-(1-{tetrahydro-2H-pyran-4-yl[6-(trifluoromethyl)pyridin-3-yl]methyl}-1H-pyrazol-4-yl)[1,2,4]triazolo[1,5-a]pyridin-5-yl]-1-(2,2,2-trifluoroethyl)pyridin-2(1H)-one] | 1.3 | 2.2 |
| Nc1nc2cc(-c3cnn(C(c4ccc(C(F)(F)F)nc4)C4CCOCC4)c3)cc(-c3ccc(=O)n(CC(F)(F)F)c3)n2n1 (single isomer, unassigned) [II-193, 5-[2-Amino-7-(1-{tetrahydro-2H-pyran-4-yl[6-(trifluoromethyl)pyridin-3-yl]methyl}-1H-pyrazol-4-yl)[1,2,4]triazolo[1,5-a]pyridin-5-yl]-1-(2,2,2-trifluoroethyl)pyridin-2(1H)-one] | 15 | 12 |
| Nc1nc2cc(-c3cnn(C(c4ccc(C(F)(F)F)nc4)C4CCOCC4)c3)cc(-c3cn(CC(F)(F)F)c(=O)cn3)n2n1 (single isomer, unassigned) [II-195, 5-[2-Amino-7-(1-{tetrahydro-2H-pyran-4-yl[6-(trifluoromethyl)pyridin-3-yl]methyl}-1H-pyrazol-4-yl)[1,2,4]triazolo[1,5-a]pyridin-5-yl]-1-(2,2,2-trifluoroethyl)pyrazin-2(1H)-one] | 1.1 | 5.2 |
| Nc1nc2cc(-c3cnn(C(c4ccc(C(F)(F)F)nc4)C4CCOCC4)c3)cc(-c3cn(CC(F)(F)F)c(=O)cn3)n2n1 (single isomer, unassigned) [II-196, 5-[2-Amino-7-(1-{tetrahydro-2H-pyran-4-yl[6-(trifluoromethyl)pyridin-3-yl]methyl}-1H-pyrazol-4-yl)[1,2,4]triazolo[1,5-a]pyridin-5-yl]-1-(2,2,2-trifluoroethyl)pyrazin-2(1H)-one] | 16 | 50 |
| Nc1nc2c(-c3ccc(C(F)(F)F)nc3)cc(-c3cnn(C4CCN(C5COC5)CC4)c3)cn2n1 [II-46, 6-{1-[1-(Oxetan-3-yl)piperidin-4-yl]-1H-pyrazol-4-yl}-8-[6-(trifluoromethyl)pyridin-3-yl][1,2,4]triazolo[1,5-a]pyridin-2-amine] | 750 | 380 |
| Nc1nc2cc(-c3cnn(Cc4ccccc4)c3)cc(-c3ccc(C4CC4)nc3)n2n1 [II-47, 7-(1-Benzyl-1H-pyrazol-4-yl)-5-(6-cyclopropylpyridin-3-yl)[1,2,4]triazolo[1,5-a]pyridin-2-amine] | 33 | 120 |
| Nc1nc2cc(-c3cnn(C4CCN(C5COC5)CC4)c3)cc(-c3ccc(C4CC4)nc3)n2n1 [II-83, 5-(6-Cyclopropylpyridin-3-yl)-7-{1-[1-(oxetan-3-yl)piperidin-4-yl]-1H-pyrazol-4-yl}[1,2,4]triazolo[1,5-a]pyridin-2-amine] | 210 | 110 |
| Nc1nc2cc(-c3cnn(Cc4ccccc4)c3)cc(-c3cnc(C4CC4)nc3)n2n1 [II-84, 7-(1-Benzyl-1H-pyrazol-4-yl)-5-(2-cyclopropylpyrimidin-5-yl)[1,2,4]triazolo[1,5-a]pyridin-2-amine] | 55 | 290 |
| Nc1nc2cc(-c3cnn(Cc4ccccc4)c3)cc(-c3cnccn3)n2n1 [II-86, 7-(1-Benzyl-1H-pyrazol-4-yl)-5-(pyrazin-2-yl)[1,2,4]triazolo[1,5-a]pyridin-2-amine] | 54 | 900 |
| CCc1cnc(-c2cc(-c3cnn(Cc4ccccc4)c3)cc3nc(N)nn23)cn1 [II-87, 7-(1-Benzyl-1H-pyrazol-4-yl)-5-(5-ethylpyrazin-2-yl)[1,2,4]triazolo[1,5-a]pyridin-2-amine] | 42 | 530 |
| Cc1cc(-c2cc(-c3cnn(Cc4ccccc4)c3)cc3nc(N)nn23)cnn1 [II-88, 7-(1-Benzyl-1H-pyrazol-4-yl)-5-(6-methylpyridazin-4-yl)[1,2,4]triazolo[1,5-a]pyridin-2-amine] | 480 | 620 |
| CC[C@@H](c1ccccc1)n1cc(-c2cc(-c3cnn(C)c3)c3nc(N)nn3c2)cn1 [II-90, 8-(1-Methyl-1H-pyrazol-4-yl)-6-{1-[(1S)-1-phenylpropyl]-1H-pyrazol-4-yl}[1,2,4]triazolo[1,5-a]pyridin-2-amine] | 6.5 | 230 |
| CC[C@@H](c1ccccc1)n1cc(-c2cc(-c3cnn(CC)c3)c3nc(N)nn3c2)cn1 [II-91, 8-(1-Ethyl-1H-pyrazol-4-yl)-6-{1-[(1S)-1-phenylpropyl]-1H-pyrazol-4-yl}[1,2,4]triazolo[1,5-a]pyridin-2-amine] | 5.2 | 115 |
| CC[C@@H](c1ccccc1)n1cc(-c2cc(-c3cnn(C4CC4)c3)c3nc(N)nn3c2)cn1 [II-92, 8-(1-Cyclopropyl-1H-pyrazol-4-yl)-6-{1-[(1S)-1-phenylpropyl]-1H-pyrazol-4-yl}[1,2,4]triazolo[1,5-a]pyridin-2-amine] | 6.7 | 150 |
| CC[C@@H](c1ccccc1)n1cc(-c2cc(-c3cnn(CC(F)(F)F)c3)c3nc(N)nn3c2)cn1 [II-93, 6-{1-[(1S)-1-Phenylpropyl]-1H-pyrazol-4-yl}-8-[1-(2,2,2-trifluoroethyl)-1H-pyrazol-4-yl][1,2,4]triazolo[1,5-a]pyridin-2-amine] | 19 | 68 |
| CC[C@@H](c1ccccc1)n1cc(-c2cc(-c3cnn(CCO)c3)c3nc(N)nn3c2)cn1 [II-97, 2-[4-(2-Amino-6-{1-[(1S)-1-phenylpropyl]-1H-pyrazol-4-yl}[1,2,4]triazolo[1,5-a]pyridin-8-yl)-1H-pyrazol-1-yl]ethan-1-ol] | 8.1 | 380 |
| CC[C@@H](c1ccc(F)cc1)n1cc(-c2cc(-c3cnn(CC(F)(F)F)c3)c3nc(N)nn3c2)cn1 [II-98, 6-{1-[(1S)-1-(4-fluorophenyl)propyl]-1H-pyrazol-4-yl}-8-[1-(2,2,2-trifluoroethyl)-1H-pyrazol-4-yl][1,2,4]triazolo[1,5-a]pyridin-2-amine] | 14 | 56 |
| Nc1nc2c(-c3cnn(CC(F)(F)F)c3)cc(-c3cnn(C4CCN(C5COC5)CC4)c3)cn2n1 [II-120, 6-{1-[1-(Oxetan-3-yl)piperidin-4-yl]-1H-pyrazol-4-yl}-8-[1-(2,2,2-trifluoroethyl)-1H-pyrazol-4-yl][1,2,4]triazolo[1,5-a]pyridin-2-amine] | 240 | 140 |
| Nc1nc2cc(-c3cnn(Cc4ccccc4)c3)cc(-c3cnn(C(F)F)c3)n2n1 [II-121, 7-(1-Benzyl-1H-pyrazol-4-yl)-5-[1-(difluoromethyl)-1H-pyrazol-4-yl][1,2,4]triazolo[1,5-a]pyridin-2-amine] | 32 | 150 |
| CC(n1cc(-c2cc(-c3cnn(Cc4ccccc4)c3)cc3nc(N)nn23)cn1)C(F)(F)F (stereo not drawn) [II-122] | 39 | 37 |
